Source: patent US8795746B2, “Therapeutic use of mucin glycans” (The Board of Trustees of the Leland Stanford Junior …, priority 2011, dated 2014)

Tests used:
[1] = test system: Bt VPI-5482 genes / PULs; experiment: Whole genome transcriptional profiling of Bt (GeneChip) relative to MM-glucose; type: cell-based, Bacteroides thetaiotaomicron; settings: compared to MM-glucose
Description: We grew Bt in minimal medium (MM) containing HMO (1.5% w/v) as the sole carbohydrate to investigate if this strain consumes human milk glycans in vitro. […] Next, we defined the transcriptional response of Bt during HMO consumption using whole genome transcriptional profiling with a custom Bt VPI-5482 GeneChip that represent >98% of this organism's protein coding genes. The transcriptome was analyzed near the midpoints of the two logarithmic growth phases in MM-HMO (n=2 biological replicates/growth phase, four datasets total). As a baseline for comparison, we used previously reported in vitro datasets of Bt grown in MM-glucose.
We wished to identify which portion of the observed Bt transcriptional response in MM-HMO was due to the complex oligosaccharides versus simple core sugars, lactose and galactose. Therefore, we performed transcriptional profiling of Bt grown in MM-galactose and MM-lactose (n=2 mid-log phase datasets for each of these monophasic growths; see FIG. 8 for growth curves and sampling timepoints).
Whole Genome Transcriptional Profiling. […] GeneChip data from bacteria growth in different carbon sources were normalized using R program by RMA-MS and statistical significance for differential gene expression was determined using SAM [45]. […]

[2] = test system: B. fragilis; experiment: Sialic acid content determination in MM-HMO after B. fragilis growth (DMB derivatization, RP-HPLC); type: cell-based, Bacteroides fragilis
Description: Ten of the 21 genes in the HMO-specific B. fragilis response were distributed within two loci that are dedicated to sialic acid acquisition and catabolism (FIG. 6B).
Sialic acid content determination. B. fragilis culture supernatant was isolated after growth in MM-HMO and clarified by centrifugation and filtration. Sialic acid concentrations were determined by the Glycotechnology Core Facility UCSD (University of California, San Diego, Calif., United States). Briefly, sialic acids were released by acid hydrolysis at 80 C for 3 hours in 2M acetic acid, collected by ultra-filtration, and derivatized with DMB (1,2-diamino-4,5-methylenedioxybenzene). The resulting fluorescent sialic acids derivatives were analyzed by RP-HPLC with on-line fluorescence detection, and identification was based on standards run in parallel.
(§1) Sialic Acid Content Determination. Culture supernatant was isolated after growth in MM-HMO and clarified by centrifugation and filtration. Sialic acid concentrations were determined by the Glycotechnology Core Facility UCSD (University of California, San Diego, San Diego, Calif.), using the […] DMB labeling kit protocol (Prozyme, San Leandro, Calif.).

[3] = test system: Bt; experiment: Sialic acid content determination in MM-HMO after Bt growth; type: cell-based, Bacteroides thetaiotaomicron
Description: Twelve of the 21 HMO-specific Bf genes were distributed within two loci that are dedicated to sialic acid acquisition and catabolism (FIG. 16B). […] To confirm that Bf does in fact consume sialic acids from HMOs, sialic acid content in the MM-HMO after growth was measured before and after acid hydrolysis using derivatization with 1,2-diamino-4,5-methylenedioxybenzene followed by reverse phase HPLC.
as §1

[4] = test system: Bacteroides thetaiotaomicron (Bt); experiment: In vitro growth of Bt in minimal medium with the glycan as sole carbohydrate (OD600); type: cell-based; settings: glycan 1.5% w/v as sole carbon source
Description: The transcriptome was analyzed near the midpoints of the two logarithmic growth phases in MM-HMO (n=2 biological replicates/growth phase, four datasets total). As a baseline for comparison, we used previously reported in vitro datasets of Bt grown in MM-glucose. […] Within these combined 253 genes (132 were commonly up regulated in both phases), 137 genes had ≧5-fold change in expression when compared to MM-glucose (see Table S1 for complete list of genes).
(§2) Bacterial Strains and Culture conditions. Type strains for Bacteroides species were used unless otherwise indicated. Bacteroides species were grown in tryptone-yeast extract-glucose (TYG) medium and minimal medium (MM) as described previously. Bif. infantis was grown in Man-Rogosa-Sharpe (MRS) medium (Oxoid LTD., Basingstoke, Hampshire, England) and minima medium consisting of modified MRS, which lacks glucose. […] OD600 was monitored using a BioTek PowerWave 340 plate reader (BioTek, Winoosky, Vt., United States) every 30 min, at 37° C. anaerobically (6% H2, 20% CO2, 74% N2).
Bacterial Strains and Culture Conditions. Type strains were used unless otherwise indicated. Bacteroides species were grown in tryptone-yeast extract-glucose (TYG) medium and minimal medium (MM). […] OD600 was monitored using a BioTek PowerWave 340 plate reader (BioTek, Winooski, Vt.) every 30 min, at 37_C anaerobically (6% H2, 20% CO2, 74% N2).

[5] = test system: Bif. infantis ATCC15697; experiment: In vitro growth of Bif. infantis in minimal medium with the glycan as carbon source; type: cell-based, Bifidobacterium longum subsp. infantis; settings: minimal medium (modified MRS without glucose) with the glycan
Description: We next queried whether the redundancy in machinery employed for mucin and HMO consumption in Bt is also found in Bifidobacterium species that are well-adapted to HMO use. Therefore, we grew a strain known to be proficient at HMO-use, Bif. infantis ATCC15697 in MM-O-PMG.
as §2
B. thetaiotaomicron and Bifidobacterium infantis Differentially Consume the Structurally Similar Mucin Glycans and HMO. […] We grew an HMO-consuming Bifidobacterium strain that is abundant in the microbiota of breast-fed infants, Bi, in purified porcine mucin glycans (MM-O-PMG) to elucidate its competence in mucin consumption. […]
Bacterial Strains and Culture Conditions. […] OD600 was monitored using a BioTek PowerWave 340 plate reader (BioTek, Winooski, Vt.) every 30 min, at 37_C anaerobically (6% H2, 20% CO2, 74% N2).

[6] = test system: Bt and Bi fecal community; experiment: Competitive colonization of gnotobiotic mice biassociated with Bt and B. infantis, LNnT in the water; type: in vivo, germ-free Swiss-Webster mice
Description: Two groups of 6-week-old germ-free mice were fed a polysaccharide-deficient diet, forcing a reliance on host mucus glycans for carbon and energy. One group received LNnT supplementation in the water (1% w/v; average consumption of 75 mg of LNnT daily), the control group received plain water.
After one day of LNnT feeding, both groups were colonized with equivalent quantities of Bt and Bi (10^8 CFU each). At day 6 post-inoculation, the group receiving LNnT was switched to normal water; at day 15 post-inoculation, LNnT was readministered for 3 additional days. Total bacterial colonization density was determined by assessing the CFUs in feces over the course of the 18 day experiment. […] LNnT supplementation was withdrawn on day 6 and colonization density was determined on days 7, 8, 9, 12, and 15 post colonization (1, 2, 3, 6, and 9 days after removing LNnT from the water). […] At day 3 post withdrawal of LNnT, Bi representation was 3.9±0.2% compared to 41.5±6.4% just prior to withdrawal (p=0.006, day 6 versus day 9, n=4 mice). LNnT was reintroduced into the water on day 15, and bacterial colonization was monitored at days 16, 17, and 18 post colonization. Two days after LNnT reintroduction, Bi expanded from 0.5±0.5% at day 15 to 49.9±2% at day 17 (p=0.012, day 15 versus day 17, n=4 mice). By day 18, Bi represented 25.9±9.6% of the community in LNnT-fed mice, compared to 1.9±1.5% in the control group (p=0.014, n=4 mice) (FIG. 16C).
Competitive Colonization of Gnotobiotic Mouse. Germ-free Swiss-Webster mice were reared in gnotobiotic isolators and fed an autoclaved polysaccharide-deficient diet in accordance with A-PLAC, the Stanford IACUC. Mice were biassociated using oral gavage (10^8 CFU of each species). Subsequent community enumerations from mice were determined from freshly collected feces, by selective plating of serial dilutions in RCM agar and BHI-blood agar supplemented with gentamicin ([…]). Significant differences between sample groups were determined using Student's t test. Synthetic LNnT (Glycom A/S, Denmark) was purified by crystallization to a final purity of >99%. Characterization was performed using multiple methods, including NMR (1D and 2D) mass spectrometry, and HPLC.

OC[C@H]1O[C@@H](O[C@H]2[C@H](O)[C@@H](O)C(O)O[C@@H]2CO)[C@H](O)[C@@H](O)[C@H]1O (stereo partly drawn) [lactose]
number of Bt genes up regulated at least 5-fold [1]: 34 genes

CC(=O)N[C@H]1[C@H]([C@H](O)[C@H](O)CO)OC(O)(C(=O)O)C[C@@H]1O (stereo partly drawn) [Neu5Ac, N-acetylneuraminic acid]
Neu5Ac content after B. fragilis growth [2]: completely depleted
Neu5Ac use by Bt [3]: unable to catabolize it

CC(=O)N[C@H]1[C@H](O[C@H]2[C@@H](O)[C@@H](CO)O[C@@H](O[C@H]3[C@H](O)[C@@H](O)C(O)O[C@@H]3CO)[C@@H]2O)O[C@H](CO)[C@@H](O[C@@H]2O[C@H](CO)[C@H](O)[C@H](O)[C@H]2O)[C@@H]1O (mixture of isomers) [LNnT, lacto-N-neotetraose]
growth of Bt [4]: did not
growth of Bif. infantis [5]: grew efficiently reaching a high OD
time for Bi to drop to levels similar to controls after removal of LNnT ([6]; LNnT withdrawn on day 6): ≤ 2 days
Bi relative to Bt in fecal community ([6]; day 6, LNnT 1% w/v in water, polysaccharide-deficient diet): 41.5±6.4%
Bi representation ([6]; day 9, day 3 post withdrawal of LNnT): 3.9±0.2%
Bi representation ([6]; day 15, before LNnT reintroduction): 0.5±0.5%
Bi representation ([6]; day 17, two days after LNnT reintroduction): 49.9±2%
Bi share of the community ([6]; day 18, LNnT-fed mice): 25.9±9.6%

O=C[C@H](O)[C@@H](O)[C@@H](O)[C@H](O)CO [galactose]
number of Bt genes up regulated at least 5-fold [1]: 40 genes
